Laboratory results reported in patent US20240067693A1, “POLYPEPTIDES AND USES THEREOF” (MEDIMMUNE LIMITED, priority 2020, published 2024).
Numbered stars: 1 amine (or outer) side, 2 acyl side, 3 side chain; on linkers, the order of the positions; unused ones are H or OH. Bridge positions count the residues as written; N and C are the ends. Square brackets hold non-standard residues; d marks the D form. Side chains are listed from the residue outwards. Peptide text beside a SMILES is read from it. * marks the point of attachment. C20 diacid = O=C(O)CCCCCCCCCCCCCCCCCCC(=O)*; C18 diacid = O=C(O)CCCCCCCCCCCCCCCCC(=O)*; γGlu = O=C(O)[C@H](CCC(=O)[*:2])N[*:1]; Dab = NCC[C@H](N)C(=O)O; Aib = CC(C)(N)C(=O)O

Legend:
[1] = target: T1, human calcitonin receptor (hCTR) (Homo sapiens, UniProt P30988); test: cAMP production in 1321N1 cells with stable recombinant expression of human calcitonin receptor (hCTR); format: cell-based; conditions: cAMP, 1321N1 cells, assay buffer with 0.1% BSA; read-out: EC50 (pM) hCTR
T1 construct: expressed in transfected cells
T1 sequence (P30988 25-474): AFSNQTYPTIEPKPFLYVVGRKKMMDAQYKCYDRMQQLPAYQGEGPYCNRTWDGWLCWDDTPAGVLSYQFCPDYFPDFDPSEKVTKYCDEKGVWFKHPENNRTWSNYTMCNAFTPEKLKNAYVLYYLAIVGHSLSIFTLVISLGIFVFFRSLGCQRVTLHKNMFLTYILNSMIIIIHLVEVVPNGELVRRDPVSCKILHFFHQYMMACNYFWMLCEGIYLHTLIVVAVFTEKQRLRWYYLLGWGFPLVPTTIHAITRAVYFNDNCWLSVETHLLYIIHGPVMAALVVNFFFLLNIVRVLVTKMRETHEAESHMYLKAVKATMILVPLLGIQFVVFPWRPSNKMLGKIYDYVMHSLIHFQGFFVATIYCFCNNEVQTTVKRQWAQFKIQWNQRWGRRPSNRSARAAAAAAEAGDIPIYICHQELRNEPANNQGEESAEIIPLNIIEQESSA
Procedure, shortened: (§1)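 Receptor-expressing cells (human receptors in 1321N1, rat receptors in HEK) incubated 30 min at room temperature with peptide in HBSS/HEPES pH 7.4, 0.1% BSA, 0.5 mM IBMX. cAMP read by HTRF; EC50 from 4-parameter fit as % of maximal amylin or calcitonin response.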

[2] = target: T2, human amylin receptor (calcitonin receptor co-expressed with receptor activity modifying protein, RAMP3) (hAMYR3) (Homo sapiens, UniProt O60896+P30988); test: cAMP production in 1321N1 cells with stable recombinant expression of human amylin receptor (hAMYR3); format: cell-based; conditions: for Ratio (selectivity hAMYR vs hCTR, ratio of EC50 values at the two receptors): EC50 hCTR / EC50 hAMYR3; for EC50: cAMP, 1321N1 cells, assay buffer with 0.1% BSA, read-out: EC50 (pM) hAMYR3
T2 construct: expressed in transfected cells
T2 sequence (P30988 25-474): T1 sequence (P30988 25-474)
T2 sequence (O60896 24-148 partner): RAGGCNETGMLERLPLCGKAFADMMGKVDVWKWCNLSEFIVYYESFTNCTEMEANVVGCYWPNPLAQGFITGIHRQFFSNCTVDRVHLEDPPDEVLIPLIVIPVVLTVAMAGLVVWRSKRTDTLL
Procedure, shortened: as §1

SMILES: CC[C@H](C)[C@H](NC(=O)[C@H](C)NC(=O)[C@@H]1CCCN1C(=O)[C@H](Cc1ccccc1)NC(=O)[C@H](CC(N)=O)NC(=O)C(C)(C)NC(=O)[C@H](CO)NC(=O)[C@H](CO)NC(=O)[C@H](Cc1c[nH]cn1)NC(=O)[C@@H](NC(=O)[C@H](CC(C)C)NC(=O)[C@H](Cc1ccccc1)NC(=O)[C@H](CC(N)=O)NC(=O)[C@H](C)NC(=O)[C@H](CC(C)C)NC(=O)[C@H](CCCNC(=N)N)NC(=O)[C@H](CCC(N)=O)NC(=O)[C@@H](NC(=O)[C@H](C)NC(=O)[C@@H]1CSSC[C@H](NC(=O)[C@@H](N)CCCCNC(=O)CC[C@H](NC(=O)CC[C@H](NC(=O)CCCCCCCCCCCCCCCCCCC(=O)O)C(=O)O)C(=O)O)C(=O)N[C@@H](CC(N)=O)C(=O)N[C@@H]([C@@H](C)O)C(=O)N[C@@H](C)C(=O)N[C@@H]([C@@H](C)O)C(=O)N1)[C@@H](C)O)C(C)C)C(=O)N[C@@H](CC(C)C)C(=O)N[C@@H](CO)C(=O)N1CCC[C@H]1C(=O)N[C@H](C(=O)N[C@@H](CC(N)=O)C(=O)N[C@H](C(=O)NCC(=O)N[C@@H](CO)C(=O)N[C@@H](CCN)C(=O)N[C@H](C(=O)N[C@@H](Cc1ccc(O)cc1)C(N)=O)[C@@H](C)O)C(C)C)[C@@H](C)O [Peptide 125, K(γE-γE-C20diacid)[CNTATC]ATQRLANFLVHSS(Aib)NFPAILSPTNVGS(Dab)TY-amide] (H-K([γGlu-γGlu-C20 diacid])CNTATCATQRLANFLVHSS[Aib]NFPAILSPTNVGS[Dab]TY-NH2; disulfide 2-7; N-terminus assumed)
- EC50 [1]: 10200 pM
- Ratio (selectivity hAMYR vs hCTR, ratio of EC50 values at the two receptors) [2]: 8

SMILES: CC[C@H](C)[C@H](NC(=O)[C@@H]1CCCN1C(=O)CNC(=O)[C@H](Cc1ccccc1)NC(=O)[C@H](CC(N)=O)NC(=O)[C@H](CCN)NC(=O)[C@H](CO)NC(=O)[C@H](CO)NC(=O)[C@H](Cc1c[nH]cn1)NC(=O)C(C)(C)NC(=O)[C@H](CC(C)C)NC(=O)[C@H](Cc1ccccc1)NC(=O)[C@H](CC(N)=O)NC(=O)[C@H](C)NC(=O)[C@H](CC(C)C)NC(=O)[C@H](CCCNC(=N)N)NC(=O)[C@H](CCC(N)=O)NC(=O)[C@@H](NC(=O)[C@H](C)NC(=O)[C@@H]1CSSC[C@H](NC(=O)[C@H](CCCCN)NC(=O)[C@@H](N)CCCCNC(=O)CC[C@H](NC(=O)CCCCCCCCCCCCCCCCC(=O)O)C(=O)O)C(=O)N[C@@H](CC(N)=O)C(=O)N[C@@H]([C@@H](C)O)C(=O)N[C@@H](C)C(=O)N[C@@H]([C@@H](C)O)C(=O)N1)[C@@H](C)O)C(=O)N[C@@H](CC(C)C)C(=O)N1CCC[C@H]1C(=O)N1CCC[C@H]1C(=O)N[C@H](C(=O)N[C@@H](CC(N)=O)C(=O)N[C@H](C(=O)NCC(=O)N[C@@H](CO)C(=O)N[C@@H](CC(N)=O)C(=O)N[C@H](C(=O)N[C@@H](Cc1ccc(O)cc1)C(N)=O)[C@@H](C)O)C(C)C)[C@@H](C)O [Peptide 126, K(γE-C18diacid)K[CNTATC]ATQRLANFL(Aib)HSS(Dab)NFGPILPPTNVGSNTY-amide] (H-K([γGlu-C18 diacid])KCNTATCATQRLANFL[Aib]HSS[Dab]NFGPILPPTNVGSNTY-NH2; disulfide 3-8)
- EC50 [1]: 8450 pM
- Ratio (selectivity hAMYR vs hCTR, ratio of EC50 values at the two receptors) [2]: 19
- EC50 [2]: 445 pM

SMILES: CC[C@H](C)[C@H](NC(=O)[C@@H]1CCCN1C(=O)CNC(=O)[C@H](Cc1ccccc1)NC(=O)[C@H](CC(N)=O)NC(=O)[C@H](CC(N)=O)NC(=O)[C@H](CO)NC(=O)[C@H](CO)NC(=O)[C@H](Cc1c[nH]cn1)NC(=O)C(C)(C)NC(=O)[C@H](CC(C)C)NC(=O)[C@H](Cc1ccccc1)NC(=O)[C@H](CC(N)=O)NC(=O)[C@H](C)NC(=O)[C@H](CC(C)C)NC(=O)[C@H](CCCNC(=N)N)NC(=O)[C@H](CCC(N)=O)NC(=O)[C@@H](NC(=O)[C@H](C)NC(=O)[C@@H]1CSSC[C@H](NC(=O)[C@@H](N)CCCCNC(=O)CC[C@H](NC(=O)CC[C@H](NC(=O)CCCCCCCCCCCCCCCCC(=O)O)C(=O)O)C(=O)O)C(=O)N[C@@H](CC(N)=O)C(=O)N[C@@H]([C@@H](C)O)C(=O)N[C@@H](C)C(=O)N[C@@H]([C@@H](C)O)C(=O)N1)[C@@H](C)O)C(=O)N[C@@H](CC(C)C)C(=O)N1CCC[C@H]1C(=O)N1CCC[C@H]1C(=O)N[C@H](C(=O)N[C@@H](CC(N)=O)C(=O)N[C@H](C(=O)NCC(=O)N[C@@H](CO)C(=O)N[C@@H](CC(N)=O)C(=O)N[C@H](C(=O)N[C@@H](Cc1ccc(O)cc1)C(N)=O)[C@@H](C)O)C(C)C)[C@@H](C)O [Peptide 127] (H-K([γGlu-γGlu-C18 diacid])CNTATCATQRLANFL[Aib]HSSNNFGPILPPTNVGSNTY-NH2; disulfide 2-7; N-terminus assumed)
- EC50 [1]: 7130 pM
- Ratio (selectivity hAMYR vs hCTR, ratio of EC50 values at the two receptors) [2]: 19.6
- EC50 [2]: 364 pM

SMILES: CC[C@H](C)[C@H](NC(=O)[C@@H]1CCCN1C(=O)CNC(=O)[C@H](Cc1ccccc1)NC(=O)[C@H](CC(N)=O)NC(=O)[C@H](CC(N)=O)NC(=O)[C@H](CO)NC(=O)[C@H](CO)NC(=O)[C@H](Cc1c[nH]cn1)NC(=O)C(C)(C)NC(=O)[C@H](CC(C)C)NC(=O)[C@H](Cc1ccccc1)NC(=O)[C@H](CCC(=O)O)NC(=O)[C@H](C)NC(=O)[C@H](CC(C)C)NC(=O)[C@H](CCCNC(=N)N)NC(=O)[C@H](CCC(N)=O)NC(=O)[C@@H](NC(=O)[C@H](C)NC(=O)[C@@H]1CSSC[C@H](NC(=O)[C@H](CCCCN)NC(=O)[C@@H](N)CCCCNC(=O)CC[C@H](NC(=O)CCCCCCCCCCCCCCCCC(=O)O)C(=O)O)C(=O)N[C@@H](CC(N)=O)C(=O)N[C@@H]([C@@H](C)O)C(=O)N[C@@H](C)C(=O)N[C@@H]([C@@H](C)O)C(=O)N1)[C@@H](C)O)C(=O)N[C@@H](CC(C)C)C(=O)N1CCC[C@H]1C(=O)N1CCC[C@H]1C(=O)N[C@H](C(=O)N[C@@H](CC(N)=O)C(=O)N[C@H](C(=O)NCC(=O)N[C@@H](CO)C(=O)N[C@@H](CC(N)=O)C(=O)N[C@H](C(=O)N[C@@H](Cc1ccc(O)cc1)C(N)=O)[C@@H](C)O)C(C)C)[C@@H](C)O [Peptide 128] (H-K([γGlu-C18 diacid])KCNTATCATQRLAEFL[Aib]HSSNNFGPILPPTNVGSNTY-NH2; disulfide 3-8; N-terminus assumed)
- EC50 [1]: 568 pM
- Ratio (selectivity hAMYR vs hCTR, ratio of EC50 values at the two receptors) [2]: 4.8
- EC50 [2]: 118 pM

SMILES: CC[C@H](C)[C@H](NC(=O)[C@@H]1CCCN1C(=O)CNC(=O)[C@H](Cc1ccccc1)NC(=O)[C@H](CC(N)=O)NC(=O)[C@H](Cc1c[nH]cn1)NC(=O)[C@H](CO)NC(=O)[C@H](CO)NC(=O)[C@H](Cc1c[nH]cn1)NC(=O)C(C)(C)NC(=O)[C@H](CC(C)C)NC(=O)[C@H](Cc1ccccc1)NC(=O)[C@H](CCC(=O)O)NC(=O)[C@H](C)NC(=O)[C@H](CC(C)C)NC(=O)[C@H](CCCNC(=N)N)NC(=O)[C@H](CCC(N)=O)NC(=O)[C@@H](NC(=O)[C@H](C)NC(=O)[C@@H]1CSSC[C@H](NC(=O)[C@H](CCCCN)NC(=O)[C@@H](N)CCCCNC(=O)CC[C@H](NC(=O)CCCCCCCCCCCCCCCCC(=O)O)C(=O)O)C(=O)N[C@@H](CC(N)=O)C(=O)N[C@@H]([C@@H](C)O)C(=O)N[C@@H](C)C(=O)N[C@@H]([C@@H](C)O)C(=O)N1)[C@@H](C)O)C(=O)N[C@@H](CC(C)C)C(=O)N1CCC[C@H]1C(=O)N1CCC[C@H]1C(=O)N[C@H](C(=O)N[C@@H](CC(N)=O)C(=O)N[C@H](C(=O)NCC(=O)N[C@@H](CO)C(=O)N[C@@H](CC(N)=O)C(=O)N[C@H](C(=O)N[C@@H](Cc1ccc(O)cc1)C(N)=O)[C@@H](C)O)C(C)C)[C@@H](C)O [Peptide 130] (H-K([γGlu-C18 diacid])KCNTATCATQRLAEFL[Aib]HSSHNFGPILPPTNVGSNTY-NH2; disulfide 3-8; N-terminus assumed)
- EC50 [1]: 6690 pM
- Ratio (selectivity hAMYR vs hCTR, ratio of EC50 values at the two receptors) [2]: 15
- EC50 [2]: 446 pM

SMILES: CC[C@H](C)[C@H](NC(=O)[C@@H]1CCCN1C(=O)CNC(=O)[C@H](Cc1ccccc1)NC(=O)[C@H](CC(N)=O)NC(=O)[C@H](Cc1c[nH]cn1)NC(=O)[C@H](CO)NC(=O)[C@H](CO)NC(=O)[C@H](Cc1c[nH]cn1)NC(=O)C(C)(C)NC(=O)[C@H](CC(C)C)NC(=O)[C@H](Cc1ccccc1)NC(=O)[C@H](CC(N)=O)NC(=O)[C@H](C)NC(=O)[C@H](CC(C)C)NC(=O)[C@H](CCCNC(=N)N)NC(=O)[C@H](CCC(N)=O)NC(=O)[C@@H](NC(=O)[C@H](C)NC(=O)[C@@H]1CSSC[C@H](NC(=O)[C@H](CCCCN)NC(=O)[C@@H](N)CCCCNC(=O)CC[C@H](NC(=O)CCCCCCCCCCCCCCCCC(=O)O)C(=O)O)C(=O)N[C@@H](CC(N)=O)C(=O)N[C@@H]([C@@H](C)O)C(=O)N[C@@H](C)C(=O)N[C@@H]([C@@H](C)O)C(=O)N1)[C@@H](C)O)C(=O)N[C@@H](CC(C)C)C(=O)N1CCC[C@H]1C(=O)N1CCC[C@H]1C(=O)N[C@H](C(=O)N[C@@H](CC(N)=O)C(=O)N[C@H](C(=O)NCC(=O)N[C@@H](CO)C(=O)N[C@@H](CC(N)=O)C(=O)N[C@H](C(=O)N[C@@H](Cc1ccc(O)cc1)C(N)=O)[C@@H](C)O)C(C)C)[C@@H](C)O [Peptide 131] (H-K([γGlu-C18 diacid])KCNTATCATQRLANFL[Aib]HSSHNFGPILPPTNVGSNTY-NH2; disulfide 3-8)
- EC50 [1]: 15100 pM
- Ratio (selectivity hAMYR vs hCTR, ratio of EC50 values at the two receptors) [2]: 20.5
- EC50 [2]: 737 pM
